Consider 11 compounds from ChEMBL document CHEMBL1201862, “PubChem BioAssay data set” (2004).

Test systems include NCI-H522; IGROV-1; SF-295; MCF7; UO-31; M14; MOLT-4; SNB-19; OVCAR-3; SF-268; K562; SNB-75; HCT-15; CAKI-1; MDA-N; OVCAR-8; RXF 393; SK-MEL-2; TK-10; HCC 2998.
What all share (experiment): inhibition of tumour cell growth, NCI panel, 48 h

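Tested at 5 concentrations; 48 h exposure; 96-well plates; endpoints linearly interpolated, else capped at highest concentration. GI50 marks 50% less growth.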 Activity calls are given as the source filed them. No stated cut-off is given here; in the data, active = GI50 up to about 1.1 µM and inactive = higher. Where only a bound is given, the exact number is not on record here.

Consider `O=C1/C(=C\Oc2ccc(F)cc2)N2CCC1CC2`, for which the GI50 in the test on NCI-H522 was 50.8 µM (inactive); with IGROV-1, 88.3 µM (inactive); in the test on SF-295, > 100 µM (inactive); in the test on MCF7, 49 µM (inactive); in the test on UO-31, 45.1 µM (inactive); in the test on M14 it was > 100 µM (inactive). For the same compound, the GI50 with MOLT-4 is 34.1 µM (inactive); in the test with SNB-19, 56.6 µM (inactive); in the test on OVCAR-3 it was > 100 µM (inactive); in the test on SF-268, 89.5 µM (inactive); with K562, 32.7 µM (inactive); in the test with SNB-75, 24.8 µM (inactive). The GI50 was 70.6 µM in the test on HCT-15; 84.9 µM (inactive) in the test with CAKI-1; 47.2 µM (inactive) in the test on MDA-N; 85.1 µM (inactive) in the test with OVCAR-8; 25.1 µM (inactive) with RXF 393; 61.2 µM (inactive) in the test on SK-MEL-2. In addition, in the test with TK-10, the GI50 is 55.3 µM (inactive).
In the case of `COc1ccc(/C(Cl)=C(\C#N)c2ccc(OC)c(OC)c2)cc1OC`, the GI50 with NCI-H522 is 59.8 µM (inactive); in the test with IGROV-1 it was > 100 µM (inactive); with SF-295 it was 61.5 µM (inactive); in the test with HCC 2998 it was > 100 µM (inactive); in the test with MCF7, 59 µM (inactive); in the test on UO-31, 59 µM (inactive). In addition, the GI50 in the test with M14 is > 100 µM (inactive); with MOLT-4 it was 78.9 µM (inactive); in the test with SNB-19, > 100 µM (inactive); with OVCAR-3, 63.1 µM (inactive); with K562, 48.9 µM (inactive); in the test on HCT-15 it was 44.3 µM. The GI50 is 54.2 µM (inactive) with CAKI-1; > 100 µM (inactive) in the test on MDA-N; 38.6 µM (inactive) with RXF 393; 96.2 µM (inactive) with SK-MEL-2; > 100 µM (inactive) in the test with TK-10.
For the compound `CC(C)[C@H]1NC(=O)[C@H]2N=C(O[C@@H]2C)[C@@H]2CCCN2C(=O)[C@H](Cc2ccccc2)NC(=O)[C@@H]2CSC(=N2)[C@@H](Cc2ccccc2)NC(=O)[C@@H]2CSC1=N2`, the GI50 in the test on NCI-H522 is 58.2 µM (inactive); in the test with IGROV-1, 41.1 µM (inactive); with SF-295, > 100 µM (inactive); in the test on HCC 2998 it was 21.7 µM (inactive); with MCF7, > 100 µM (inactive); in the test with UO-31, 59.8 µM (inactive). Also, the GI50 is > 100 µM (inactive) in the test with M14; 75.7 µM (inactive) in the test with MOLT-4; > 100 µM (inactive) in the test on SNB-19; 38.5 µM (inactive) in the test on OVCAR-3; > 100 µM (inactive) in the test on SF-268; 92.9 µM (inactive) in the test with K562. Besides, the GI50 in the test with HCT-15 was above 100 µM; in the test on CAKI-1, > 100 µM (inactive); in the test on MDA-N, > 100 µM (inactive); in the test with OVCAR-8 it was > 100 µM (inactive); with RXF 393, 61.4 µM (inactive); with SK-MEL-2, 85.9 µM (inactive). Further, the GI50 in the test with TK-10 was > 100 µM (inactive).
With `CC(C)=CC(=O)c1[nH]c2ccccc2c1CC(=O)NCCc1cn(C(c2ccccc2)(c2ccccc2)c2ccccc2)cn1`, the GI50 was 6.71 µM (inactive) in the test with NCI-H522; 3.84 µM (inactive) in the test on IGROV-1; 4.57 µM (inactive) in the test on SF-295; 1.97 µM (inactive) with HCC 2998; 2.99 µM (inactive) in the test with MCF7; 3.55 µM (inactive) in the test on UO-31. Also, the GI50 in the test with M14 was 2.02 µM (inactive); with MOLT-4, 2.26 µM (inactive); with SNB-19, 6.05 µM (inactive); with OVCAR-3, 3.84 µM (inactive); with SF-268, 16.8 µM (inactive); with K562, 2.99 µM (inactive). For the same compound, the GI50 is 3.89 µM in the test with HCT-15; 7.87 µM (inactive) in the test with CAKI-1; 2.91 µM (inactive) with MDA-N; 3.96 µM (inactive) in the test on OVCAR-8; 2.81 µM (inactive) in the test with RXF 393; 1.81 µM (inactive) in the test on SK-MEL-2. In addition, the GI50 in the test with TK-10 is 6.76 µM (inactive).
On to `COc1cc(/C=C/c2nc(NC(=S)Nc3ccccc3)nnc2C)cc(OC)c1OC`, for which the GI50 was 11.1 µM (inactive) in the test with NCI-H522; 27.2 µM (inactive) in the test with IGROV-1; 50.1 µM (inactive) in the test on SF-295; 12.6 µM (inactive) in the test with HCC 2998; 13.9 µM (inactive) in the test on MCF7; 4.36 µM (inactive) in the test on UO-31. Also, the GI50 with M14 is 21.4 µM (inactive); in the test on MOLT-4 it was 25 µM (inactive); in the test on SNB-19 it was 32.5 µM (inactive); in the test on SF-268, 27.4 µM (inactive); in the test with K562 it was 29.9 µM (inactive); in the test with HCT-15 it was 11.2 µM. The GI50 in the test with CAKI-1 was 29.1 µM (inactive); with MDA-N, 48.2 µM (inactive); in the test with OVCAR-8, 20.8 µM (inactive); in the test with RXF 393 it was 23.6 µM (inactive); in the test on SK-MEL-2, 14.5 µM (inactive); in the test on TK-10, 41.4 µM (inactive).
Consider `CCOC(=O)c1c(N)nn2c1cc1cccccc12`, for which the GI50 was 20.1 µM (inactive) with NCI-H522; 27.9 µM (inactive) with IGROV-1; 25.1 µM (inactive) with SF-295; 30 µM (inactive) with HCC 2998; 16 µM (inactive) in the test on MCF7; 42.1 µM (inactive) in the test on M14. Moreover, the GI50 was 25.7 µM (inactive) in the test with MOLT-4; 40.7 µM (inactive) in the test with SNB-19; 28.2 µM (inactive) in the test with OVCAR-3; 24.5 µM (inactive) in the test with SF-268; 32.3 µM in the test on HCT-15; 27.9 µM (inactive) in the test on CAKI-1. Besides, the GI50 was 41.5 µM (inactive) in the test on MDA-N; 24.8 µM (inactive) in the test on OVCAR-8; 6.14 µM (inactive) in the test on RXF 393; 19.1 µM (inactive) with SK-MEL-2; 19.5 µM (inactive) with TK-10.
In the case of `CN(C(=O)Cc1cccc(N=C=S)c1)[C@H]1CCCC[C@@H]1N1CCCC1`, the GI50 was 12.9 µM (inactive) with NCI-H522; 13.9 µM (inactive) in the test with IGROV-1; 27.6 µM (inactive) in the test on SF-295; 13 µM (inactive) with MCF7; 14.7 µM (inactive) in the test on UO-31; 17.8 µM (inactive) in the test with M14. The GI50 with MOLT-4 was 5.24 µM (inactive); in the test with SNB-19 it was 20.6 µM (inactive); in the test on OVCAR-3, 14.1 µM (inactive); with SF-268 it was 20 µM (inactive); with K562, 7.59 µM (inactive); in the test with SNB-75 it was 14.1 µM (inactive). The GI50 is 14.5 µM in the test on HCT-15; 15.4 µM (inactive) with CAKI-1; 14.1 µM (inactive) with MDA-N; 16.2 µM (inactive) in the test with OVCAR-8; 12.9 µM (inactive) with RXF 393; 18.7 µM (inactive) with SK-MEL-2. Besides, the GI50 with TK-10 was 11.9 µM (inactive).
Regarding `S=C(N1CCN(c2cccc(Cl)c2)CC1)N1CCN(c2cccc(Cl)c2)CC1`, the GI50 is 26.9 µM (inactive) in the test with NCI-H522; 42.6 µM (inactive) in the test with IGROV-1; 39.3 µM (inactive) with SF-295; 17.5 µM (inactive) in the test on HCC 2998; 37.1 µM (inactive) with MCF7; 24 µM (inactive) with UO-31. Also, the GI50 was 53.7 µM (inactive) in the test on M14; 16 µM (inactive) in the test with MOLT-4; 39.7 µM (inactive) with SNB-19; 47 µM (inactive) in the test with OVCAR-3; 39.9 µM (inactive) with SF-268; 33 µM (inactive) with K562. Moreover, the GI50 in the test on HCT-15 was 57.3 µM; in the test on CAKI-1, 25.2 µM (inactive); in the test on MDA-N it was > 100 µM (inactive); in the test on OVCAR-8, > 100 µM (inactive); in the test with RXF 393, 36.6 µM (inactive); in the test on SK-MEL-2 it was > 100 µM (inactive). In the test on TK-10, the GI50 is 43.4 µM (inactive).
Regarding `CCN(C(=S)N[C@H](C(=O)N[C@@H](C)C(=O)OC)C(C)C)c1ccccc1`, the GI50 in the test on NCI-H522 is 16.6 µM (inactive); in the test with IGROV-1 it was 25.8 µM (inactive); in the test with SF-295, > 100 µM (inactive); with HCC 2998 it was > 100 µM (inactive); in the test on MCF7 it was 87.3 µM (inactive); with UO-31, 60.8 µM (inactive). The GI50 in the test with M14 was 53.2 µM (inactive); with MOLT-4, 25.4 µM (inactive); with SNB-19 it was > 100 µM (inactive); with OVCAR-3 it was > 100 µM (inactive); in the test on K562 it was 22.7 µM (inactive); in the test on HCT-15 it was 63.1 µM. The GI50 is > 100 µM (inactive) in the test with CAKI-1; 91.2 µM (inactive) with MDA-N; 21.8 µM (inactive) with OVCAR-8; 62.1 µM (inactive) with RXF 393; > 100 µM (inactive) with SK-MEL-2; 88.5 µM (inactive) with TK-10.
In the case of `CC(=O)O[C@H]1C(=O)[C@@]2(C)[C@H]([C@H](OC(=O)c3ccccc3)[C@@]3(O)C[C@H](O)C(C)=C1C3(C)C)[C@]1(OC(C)=O)CO[C@@H]1C[C@@H]2O`, the GI50 with NCI-H522 is 17 µM (inactive); in the test on IGROV-1, 19.5 µM (inactive); in the test on SF-295 it was 37.5 µM (inactive); in the test on MCF7, 30.4 µM (inactive); in the test with UO-31, 82 µM (inactive); in the test on M14 it was 28.6 µM (inactive). For the same compound, the GI50 with MOLT-4 was 73.3 µM (inactive); in the test with SNB-19, 69.3 µM (inactive); with OVCAR-3, 22.2 µM (inactive); in the test with SF-268, 83.4 µM (inactive); with K562, 55.8 µM (inactive); with SNB-75, 11.2 µM (inactive). The GI50 in the test with HCT-15 is 53.3 µM; with CAKI-1, > 100 µM (inactive); with MDA-N, 4.55 µM (inactive); with OVCAR-8, 31.2 µM (inactive); in the test on RXF 393, 37.1 µM (inactive); in the test on SK-MEL-2, 46.9 µM (inactive). Further, in the test with TK-10, the GI50 was 83.2 µM (inactive).
With `Clc1ccc(-c2ccc(-c3nnc(CCc4nnc(-c5ccc(-c6ccc(Cl)cc6)o5)o4)o3)o2)cc1`, the GI50 in the test with NCI-H522 was 24.8 µM (inactive); in the test on IGROV-1 it was > 71.9 µM (inactive); in the test on SF-295, 31.5 µM (inactive); in the test with HCC 2998, > 100 µM (inactive); in the test on MCF7, > 61.4 µM (inactive); with UO-31, > 100 µM (inactive). For the same compound, the GI50 with M14 was > 100 µM (inactive); in the test with MOLT-4, 3.81 µM (inactive); in the test with SNB-19, > 100 µM (inactive); in the test on OVCAR-3, > 100 µM (inactive); in the test on SF-268, 28.6 µM (inactive); in the test with K562, 7.93 µM (inactive). The GI50 was above 100 µM with HCT-15; > 100 µM (inactive) in the test on CAKI-1; > 100 µM (inactive) in the test on MDA-N; > 91 µM (inactive) in the test with OVCAR-8; 25.8 µM (inactive) with RXF 393; 23.4 µM (inactive) in the test on SK-MEL-2. In addition, the GI50 in the test on TK-10 is 40.9 µM (inactive).
